Test results reported in US5223526A, “Pyrazole carboxanilide fungicides and use” (Monsanto Company, priority 1992, dated 1993).
Where two headings read alike, the source gives them in different places.

What was measured:
succinate dehydrogenase = target: T1, succinate dehydrogenase (Botrytis cinerea, UniProt A0A384J5E4+A0A384J8V8+A0A384JHJ5); experiment: Enzyme inhibition: succinate dehydrogenase activity in Botrytis cinerea mitochondria (DCPIP reduction); format: biochemical
T1 construct: succinate-DCPIP reductase assay with KCN
Summary of the method: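 DCPIP (45 μM) reduction at 600 nm tracked with 17 mM succinate, 1 mM KCN and 50 mM potassium phosphate, pH 7.2. Compounds were added in acetone (final 1% v/v), and Botrytis cinerea isolate Nick mitochondrial fraction initiated the reaction. Rates minus endogenous activity gave percentage inhibition, plotted semilog against concentration to derive I50 (μM).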

Botrytis cinerea [1] = experiment: Eggplant grey mold; format: in vivo; parameters: scale not given here; details: inoculated 24 h later, rated after 3-4 days; for Disease Control Rating at 500 ppm: eggplant sprayed with 500 ppm; for Disease Control Rating at 20 ppm: eggplant sprayed with 20 ppm; for Disease Control Rating at 100 ppm: eggplant sprayed with 100 ppm
Summary of the method: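 Protective test: compound formulations (2:3 acetone:water, 0.5% Tween 20; 500, 100 or 20 ppm) sprayed on 14-18-day-old plants, with spore inoculum (4×10^6 spore/mL) applied a day later. Disease control rated on Botrytis lesions after 3-4 days at 23 °C and 100% humidity.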

Botrytis cinerea [2] = experiment: Vine grey mold (grape berries); format: in vivo; details: for pest or weed control at 50 ppm: read-out: % DISEASE CONTROL 50 ppm; for pest or weed control at 200 ppm: read-out: % DISEASE CONTROL 200 ppm
Summary of the method: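 Preventive berry test: compound at 50 or 200 ppm (acetone/water, 0.05% Tween 20) applied one day before inoculation with 10^6 spores/mL Botrytis conidia. After 7-10 days at 20 °C under 12 h light, infected surface area rated; disease control expressed as percent reduction from control mean; repeated-test values averaged.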

Rhizoctonia solani = experiment: Rice sheath blight; format: in vivo; parameters: scale not given here; details: inoculated two days later, rated after 7 days, average of five plants; for Disease Control Rating at 0.02 mg/mL: foliage and soil sprayed with 0.02 mg/mL; for Disease Control Rating at 0.1 mg/mL: foliage and soil sprayed with 0.1 mg/mL; for Disease Control Rating at 0.5 mg/mL: foliage and soil sprayed with 0.5 mg/mL
Summary of the method: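 Preventive test: R. solani inoculum on rice grain was applied at the plant base two days after spraying foliage and soil with Compound A (0.5, 0.1 or 0.02 mg/mL, water/acetone/Tween 20). Plants aged 11–15 days stood in flood trays; after 7 days at 25 °C and high humidity, disease control was rated against untreated plants, five plants averaged.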

[3] = tested on: Botrytis cinerea Mitochondria; details: 1 μM concentration; cited from earlier work
[4] = concentration required to inhibit the rate of DCPIP reduction by 50%; Botrytis cinerea isolate Nick mitochondria; read-out: I50 (μM conc.)
[5] = grape berries treated with 50 ppm, average of six berries, 7-10 days
[6] = grape berries treated with 200 ppm, average of six berries, 7-10 days

T1 sequence (A0A384J5E4 1-300): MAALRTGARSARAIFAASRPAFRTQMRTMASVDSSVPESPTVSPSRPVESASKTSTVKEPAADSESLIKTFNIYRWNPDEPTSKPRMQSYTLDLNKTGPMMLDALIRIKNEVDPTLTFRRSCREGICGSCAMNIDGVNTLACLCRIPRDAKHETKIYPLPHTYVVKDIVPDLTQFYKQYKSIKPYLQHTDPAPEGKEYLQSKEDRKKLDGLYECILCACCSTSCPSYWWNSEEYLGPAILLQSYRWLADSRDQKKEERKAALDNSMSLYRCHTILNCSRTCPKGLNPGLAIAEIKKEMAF
T1 sequence (A0A384J8V8 1-189): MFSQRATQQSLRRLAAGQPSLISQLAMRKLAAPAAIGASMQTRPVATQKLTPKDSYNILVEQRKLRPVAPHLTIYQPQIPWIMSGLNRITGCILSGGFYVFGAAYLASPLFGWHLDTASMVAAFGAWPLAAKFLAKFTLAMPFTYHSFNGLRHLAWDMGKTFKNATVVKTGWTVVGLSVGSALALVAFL
T1 sequence (A0A384JHJ5 1-192): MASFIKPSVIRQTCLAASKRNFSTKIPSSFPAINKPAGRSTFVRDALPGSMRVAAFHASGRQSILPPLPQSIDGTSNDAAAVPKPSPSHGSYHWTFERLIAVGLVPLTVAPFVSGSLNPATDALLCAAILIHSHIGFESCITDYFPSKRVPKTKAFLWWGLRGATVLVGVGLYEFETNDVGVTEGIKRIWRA
T1 sequence (A0A384K456 1-647 partner): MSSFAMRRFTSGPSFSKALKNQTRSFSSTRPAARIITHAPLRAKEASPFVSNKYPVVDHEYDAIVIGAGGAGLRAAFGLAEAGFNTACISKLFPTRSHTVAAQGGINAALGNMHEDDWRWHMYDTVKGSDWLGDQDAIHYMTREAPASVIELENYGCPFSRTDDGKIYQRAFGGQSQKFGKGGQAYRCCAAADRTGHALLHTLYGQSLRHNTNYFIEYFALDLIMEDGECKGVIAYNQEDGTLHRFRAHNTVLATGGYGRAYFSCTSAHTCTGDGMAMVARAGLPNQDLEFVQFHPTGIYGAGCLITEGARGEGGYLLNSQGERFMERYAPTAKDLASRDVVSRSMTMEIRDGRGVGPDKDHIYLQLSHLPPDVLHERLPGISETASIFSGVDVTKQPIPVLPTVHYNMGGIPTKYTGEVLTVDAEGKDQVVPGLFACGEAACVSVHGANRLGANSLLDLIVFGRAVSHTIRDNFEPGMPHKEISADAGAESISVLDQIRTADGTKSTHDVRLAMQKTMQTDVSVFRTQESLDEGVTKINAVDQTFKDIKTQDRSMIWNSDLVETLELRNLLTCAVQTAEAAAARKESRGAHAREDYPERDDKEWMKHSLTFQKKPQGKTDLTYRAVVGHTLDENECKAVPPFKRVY

Row | SMILES | IC50 (succinate dehydrogenase; [4]) [µM] | Disease Control Rating at 500 ppm (Botrytis cinerea [1]) | pest or weed control at 50 ppm (Botrytis cinerea [2]) [%] | pest or weed control at 200 ppm (Botrytis cinerea [2]) [%] | Disease Control Rating at 0.02 mg/mL (Rhizoctonia solani) | Disease Control Rating at 0.1 mg/mL (Rhizoctonia solani) | Disease Control Rating at 0.5 mg/mL (Rhizoctonia solani) | inhibition (respiratory inhibition) [3] [%] | Disease Control Rating at 20 ppm (Botrytis cinerea [1]) | Disease Control Rating at 100 ppm (Botrytis cinerea [1]) | pest or weed control at 50 ppm (Botrytis cinerea [2]; [5]) [%] | pest or weed control at 200 ppm (Botrytis cinerea [2]; [6]) [%] | IC50 (succinate dehydrogenase; read-out: I50 (μM conc.); concentration required to inhibit the rate of DCPIP reduction by 50%; Botrytis cinerea isolate Nick mitochondria) [µM]
1 | CC1=C(C(=O)Nc2ccccc2)SCCO1 [Carboxin, carboxin, reference compound] | 0.72 ± 0.3 | 0 | 0 | 0 | 0 | 1 | 3 | 68 | – | – | – | – | –
2 | Cn1cc(C(=O)Nc2ccccc2C2(C)CCCC2)c(C(F)F)n1 [Example 83, 1H-pyrazole-4-carboxamide, 3-(difluoromethyl)-1-methyl-N-[2-(1-methylcyclopentyl)phenyl]-] | 0.13 | 2 | – | – | 3 | 3 | 3 | – | 0 | 0 | 56 | 55 | –
3 | Cn1cc(C(=O)Nc2ccccc2C2=CCCCCC2)c(C(F)F)n1 [Example 111, 1H-pyrazole-4-carboxamide, N-[2-(1-cyclohepten-1-yl)phenyl]-3-(difluoromethyl)-1-methyl-] | 0.0038 | 1 | – | – | 3 | 3 | 3 | – | 1 | 1 | 99 | 100 | –
4 | Cn1cc(C(=O)Nc2ccccc2C2CCC(C(C)(C)C)CC2)c(C(F)(F)F)n1 (stereo not drawn) [Example 135, 1H-pyrazole-4-carboxamide, N-[2-[4-(1,1-dimethylethyl)cyclohexyl]-phenyl]-1-methyl-3-(trifluoromethyl)-] | 0.01 | 2 | – | – | – | – | 3 | – | 1 | 1 | 52 | 66 | –
5 | Cc1ccc(OC2CCCCC2)c(NC(=O)c2cn(C)nc2C(F)F)c1 [Example 96, 1H-pyrazole-4-carboxamide, N-[2-(cyclohexyloxy)-5-methylphenyl]-3-(difluoromethyl)-1-methyl-] | 0.43 | 0 | – | – | – | – | 0 | – | – | – | 0 | 0 | –
6 | Cc1nn(C)c(Cl)c1C(=O)Nc1ccccc1[C@@H]1C[C@H]2CC[C@@H]1C2 (relative stereo) [Example 106, 1H-pyrazole-4-carboxamide, N-(2-bicyclo[2.2.1]hept-2-ylphenyl)-5-chloro-1,3-dimethyl-, exo-] | 0.094 | 0 | – | – | 2 | 3 | 3 | – | – | – | 9 | 3 | –
7 | Cn1cc(C(=O)Nc2ccccc2[C@@H]2C[C@H]3CC[C@@H]2C3)c(C(F)F)n1 (relative stereo) [Example 26, 1H-pyrazole-4-carboxamide, N-(2-bicyclo[2.2.1]hept-2-ylphenyl)-3-(difluoromethyl)-1-methyl-, exo-] | 0.0017 | 1 | – | – | – | – | 1 | – | 1 | 2 | 97 | 100 | –
8 | Cn1cc(C(=O)Nc2ccccc2OCCCC2CCCC2)c(C(F)(F)F)n1 [Example 49, 1H-pyrazole-4-carboxamide, N-[2-(3-cyclopentylpropoxy)phenyl]-1-methyl-3-(trifluoromethyl)-] | 0.047 | 0 | – | – | – | – | 0 | – | – | – | 4 | 0 | –
9 | Cn1cc(C(=O)Nc2ccccc2CC2CCCCCC2)c(C(F)F)n1 [Example 145, 1H-pyrazole-4-carboxamide, 1-methyl-N-[2-(cycloheptylmethyl)-phenyl]-3-(difluoromethyl)-] | 0.025 | 0 | – | – | – | – | 3 | – | 0 | 0 | 0 | 0 | –
10 | Cn1cc(C(=O)Nc2ccccc2C2=CC(C)(C)CC(C)(C)C2)c(C(F)(F)F)n1 [Example 123, 1H-pyrazole-4-carboxamide, 1-methyl-N-[2-(3,3,5,5-tetramethyl-1-cyclohexen-1-yl)phenyl]-3-(trifluoromethyl)-] | 0.023 | 0 | – | – | – | – | 0 | – | 0 | 0 | 14 | 36 | –
11 | Cn1nc(C(F)F)c(C(=O)Nc2ccccc2C2CCCCCC2)c1Cl [Example 114, 1H-pyrazole-4-carboxamide, 5-chloro-N-(2-cycloheptylphenyl)-3-(difluoromethyl)-1-methyl-] | 0.0036 | 2 | – | – | 3 | 3 | 3 | – | 0 | 1 | 78 | 90 | –
12 | CC1C=C(c2ccccc2NC(=O)c2cn(C)nc2C(F)(F)F)CC1 (stereo not drawn) [Example 148, 1H-pyrazole-4-carboxamide, N-[2-(3-methyl-1-cyclopenten-1-yl)phenyl]-1-methyl-3-(trifluoromethyl)-] | 0.027 | 2 | – | – | – | – | 3 | – | 0 | 2 | 37 | 99 | –
13 | Cn1cc(C(=O)Nc2ccccc2C2=CCCCCCC2)c(C(F)F)n1 [Example 119] | – | 2 | – | – | – | – | 2 | – | 0 | 1 | 73 | 84 | 0.0035
14 | Cn1cc(C(=O)Nc2ccccc2OCCC2CCCC2)c(C(F)(F)F)n1 [Example 55, 1H-pyrazole-4-carboxamide, N-[2-(2-cyclopentylethoxy)phenyl]-1-methyl-3-(trifluoromethyl)-] | 0.027 | 0 | – | – | – | – | 0 | – | – | – | 11 | 0 | –
15 | Cn1cc(C(=O)Nc2ccccc2O[C@H]2CC[C@@H](C)CC2)c(C(F)(F)F)n1 [Example 72, 1H-pyrazole-4-carboxamide, 1-methyl-N-[2-[(4-methylcyclohexyl)oxy]phenyl]-3-(trifluoromethyl)-, cis-] | 0.031 | 0 | – | – | – | – | 0 | – | – | – | 0 | 0 | –
16 | Cn1cc(C(=O)Nc2ccccc2CC2CCCCCC2)c(C(F)(F)F)n1 [Example 146, 1H-pyrazole-4-carboxamide, 1-methyl-N-[2-(cycloheptylmethyl)-phenyl]-3-(trifluoromethyl)-] | 0.053 | 1 | – | – | – | – | 1 | – | 0 | 0 | 0 | 0 | –
